Results as given in ChEMBL document CHEMBL4823311, “Optimization of Naphthyridones into Selective TATA-Binding Protein Associated Factor 1 (TAF1) Bromodomain Inhibitors” (ACS Med Chem Lett, 2021).

Legend:
[1] = molecular target: Bromodomain-containing protein 4 (Homo sapiens, UniProt O60885); assay: Inhibition of human partial length BRD4 BD1 (N44 to E168 residues) expressed in bacterial expression system by BROMOscan assay
[2] = molecular target: T1, Bromodomain-containing protein 9 (Homo sapiens, UniProt Q9H8M2); assay: Inhibition of human partial length BRD9 (R130 to V259 residues) expressed in bacterial expression system measured by BROMOscan assay
T1 sequence (Q9H8M2 whole entry): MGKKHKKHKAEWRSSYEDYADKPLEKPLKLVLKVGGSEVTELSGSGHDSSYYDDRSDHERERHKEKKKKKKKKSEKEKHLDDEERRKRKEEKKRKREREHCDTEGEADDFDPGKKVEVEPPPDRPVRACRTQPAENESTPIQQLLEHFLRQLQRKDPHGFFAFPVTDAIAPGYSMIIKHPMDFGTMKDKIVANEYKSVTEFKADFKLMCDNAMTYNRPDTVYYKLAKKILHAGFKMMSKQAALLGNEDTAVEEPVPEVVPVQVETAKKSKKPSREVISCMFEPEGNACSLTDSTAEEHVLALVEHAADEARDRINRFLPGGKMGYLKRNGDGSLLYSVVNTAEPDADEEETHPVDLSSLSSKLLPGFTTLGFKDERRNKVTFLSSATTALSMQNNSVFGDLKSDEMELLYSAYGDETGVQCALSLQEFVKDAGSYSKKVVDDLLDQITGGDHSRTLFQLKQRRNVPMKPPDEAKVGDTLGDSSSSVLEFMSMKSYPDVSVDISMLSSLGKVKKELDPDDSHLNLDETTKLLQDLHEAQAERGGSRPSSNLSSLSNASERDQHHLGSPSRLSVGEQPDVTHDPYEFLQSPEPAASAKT

Peregrin = molecular target: T2, Peregrin (Homo sapiens, UniProt P55201); assay: Inhibition of human partial length BRPF1 (E627 to G740 residues) expressed in bacterial expression system by BROMOscan assay
T2 sequence (P55201 whole entry): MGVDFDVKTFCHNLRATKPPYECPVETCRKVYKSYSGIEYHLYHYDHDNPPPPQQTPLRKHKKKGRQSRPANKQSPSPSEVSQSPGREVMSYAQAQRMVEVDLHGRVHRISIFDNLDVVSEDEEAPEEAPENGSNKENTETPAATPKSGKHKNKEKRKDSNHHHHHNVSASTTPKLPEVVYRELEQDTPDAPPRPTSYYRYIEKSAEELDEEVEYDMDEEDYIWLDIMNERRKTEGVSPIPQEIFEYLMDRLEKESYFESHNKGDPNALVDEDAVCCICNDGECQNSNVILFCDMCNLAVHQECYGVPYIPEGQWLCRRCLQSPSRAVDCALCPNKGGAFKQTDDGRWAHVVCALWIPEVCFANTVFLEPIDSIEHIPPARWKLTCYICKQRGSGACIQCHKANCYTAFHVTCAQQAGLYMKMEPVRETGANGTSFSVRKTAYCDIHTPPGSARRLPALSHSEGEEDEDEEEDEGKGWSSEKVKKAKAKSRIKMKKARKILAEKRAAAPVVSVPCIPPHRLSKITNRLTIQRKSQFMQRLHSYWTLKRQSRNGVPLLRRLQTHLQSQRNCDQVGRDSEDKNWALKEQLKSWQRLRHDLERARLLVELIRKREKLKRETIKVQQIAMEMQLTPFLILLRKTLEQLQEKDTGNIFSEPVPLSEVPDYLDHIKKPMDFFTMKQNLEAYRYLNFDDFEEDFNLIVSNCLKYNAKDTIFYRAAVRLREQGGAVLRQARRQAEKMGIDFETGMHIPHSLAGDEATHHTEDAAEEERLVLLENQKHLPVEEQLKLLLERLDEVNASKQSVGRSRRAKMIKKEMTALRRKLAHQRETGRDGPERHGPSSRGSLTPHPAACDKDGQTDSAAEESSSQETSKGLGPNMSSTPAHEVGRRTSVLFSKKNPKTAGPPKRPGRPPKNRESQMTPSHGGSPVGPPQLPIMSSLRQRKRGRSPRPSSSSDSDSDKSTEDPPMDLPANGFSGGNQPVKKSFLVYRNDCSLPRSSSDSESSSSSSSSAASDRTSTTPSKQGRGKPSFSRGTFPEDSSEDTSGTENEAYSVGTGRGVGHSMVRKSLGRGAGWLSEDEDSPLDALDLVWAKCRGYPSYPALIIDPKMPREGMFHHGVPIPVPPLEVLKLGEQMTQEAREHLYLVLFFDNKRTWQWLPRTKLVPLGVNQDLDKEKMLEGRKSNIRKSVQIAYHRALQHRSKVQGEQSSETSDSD

[3] = molecular target: Transcription initiation factor TFIID subunit 1 (Homo sapiens, UniProt P21675); assay: Displacement of Halo-tagged histone H4 from NanoLuc-tagged TAF1 bromodomain 2 (unknown origin) expressed in HEK293 cells measured after 4 to 6 hrs by NanoBRET assay; format: cell-based
Chain of Transcription initiation factor TFIID subunit 1 (P21675 whole entry): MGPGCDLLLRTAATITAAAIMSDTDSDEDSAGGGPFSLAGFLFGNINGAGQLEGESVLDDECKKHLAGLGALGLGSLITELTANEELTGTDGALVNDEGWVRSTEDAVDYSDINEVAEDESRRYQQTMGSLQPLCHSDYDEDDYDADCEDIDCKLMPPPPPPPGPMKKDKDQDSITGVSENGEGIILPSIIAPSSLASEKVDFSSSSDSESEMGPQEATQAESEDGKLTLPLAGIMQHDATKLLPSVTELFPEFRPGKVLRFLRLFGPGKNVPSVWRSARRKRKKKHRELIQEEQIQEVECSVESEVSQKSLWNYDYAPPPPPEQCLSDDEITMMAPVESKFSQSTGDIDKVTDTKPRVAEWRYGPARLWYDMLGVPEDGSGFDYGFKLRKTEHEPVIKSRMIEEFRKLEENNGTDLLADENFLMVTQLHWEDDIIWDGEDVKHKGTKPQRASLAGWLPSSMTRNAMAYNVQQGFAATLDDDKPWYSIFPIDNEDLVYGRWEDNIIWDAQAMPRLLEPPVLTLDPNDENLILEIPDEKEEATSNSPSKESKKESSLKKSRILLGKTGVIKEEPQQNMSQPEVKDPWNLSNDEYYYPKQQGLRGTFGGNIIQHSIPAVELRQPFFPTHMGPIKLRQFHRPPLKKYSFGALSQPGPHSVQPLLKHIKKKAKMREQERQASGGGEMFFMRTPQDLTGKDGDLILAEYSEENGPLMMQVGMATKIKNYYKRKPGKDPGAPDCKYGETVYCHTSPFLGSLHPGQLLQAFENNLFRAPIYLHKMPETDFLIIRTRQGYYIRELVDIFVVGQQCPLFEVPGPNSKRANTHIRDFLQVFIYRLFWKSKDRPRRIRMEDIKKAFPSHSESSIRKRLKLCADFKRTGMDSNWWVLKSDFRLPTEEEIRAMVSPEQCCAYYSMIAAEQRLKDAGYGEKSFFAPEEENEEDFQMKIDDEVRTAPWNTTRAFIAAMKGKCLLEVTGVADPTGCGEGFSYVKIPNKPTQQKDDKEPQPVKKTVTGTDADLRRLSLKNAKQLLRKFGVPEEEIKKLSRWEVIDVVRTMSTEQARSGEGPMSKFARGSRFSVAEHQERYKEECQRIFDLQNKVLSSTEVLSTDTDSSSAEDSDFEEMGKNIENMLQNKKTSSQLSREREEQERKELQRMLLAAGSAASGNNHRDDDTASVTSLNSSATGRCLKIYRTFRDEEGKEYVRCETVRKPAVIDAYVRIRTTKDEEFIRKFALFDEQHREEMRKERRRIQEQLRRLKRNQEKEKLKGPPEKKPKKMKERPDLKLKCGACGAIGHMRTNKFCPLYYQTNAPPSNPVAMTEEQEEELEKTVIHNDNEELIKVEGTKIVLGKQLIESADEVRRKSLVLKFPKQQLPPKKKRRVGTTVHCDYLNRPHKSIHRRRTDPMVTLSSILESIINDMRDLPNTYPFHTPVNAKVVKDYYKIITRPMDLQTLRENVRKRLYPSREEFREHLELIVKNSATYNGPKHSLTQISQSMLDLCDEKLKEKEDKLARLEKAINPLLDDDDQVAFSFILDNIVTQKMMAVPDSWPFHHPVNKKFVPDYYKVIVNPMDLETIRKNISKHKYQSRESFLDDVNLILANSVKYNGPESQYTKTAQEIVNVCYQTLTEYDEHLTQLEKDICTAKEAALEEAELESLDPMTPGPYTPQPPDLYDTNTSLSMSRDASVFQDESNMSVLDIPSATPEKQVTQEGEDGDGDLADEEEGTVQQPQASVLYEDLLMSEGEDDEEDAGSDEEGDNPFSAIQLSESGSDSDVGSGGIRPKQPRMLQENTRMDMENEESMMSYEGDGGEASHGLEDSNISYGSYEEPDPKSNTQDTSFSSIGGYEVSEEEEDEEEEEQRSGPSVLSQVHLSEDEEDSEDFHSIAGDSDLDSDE

Question: What does the source list for `Cc1cc2c(C3=CCOCC3)cnc(NC3CCN(C(=O)C(F)(F)CN)CC3)c2[nH]c1=O`?
Answer: Ki [1]: > 5.01 µM; Ki [2]: 0.0398 µM; Ki (Peregrin): 5.01 µM; IC50 [3]: > 10 µM
